pIC50, pKi: −log10 of the molar value. Active and inactive are the calls of the source. The calls are words filed in the database; no cut-off is given here.
Columns and labels:
[1] = molecular target: T1, Xanthine dehydrogenase/oxidase (Bos taurus, UniProt P80457); experiment: Inhibition of bovine xanthine oxidase assessed as reduction in uric acid formation using xanthine as substrate preincubated for 25 mins followed by substrate addition measured at first 2 mins by spectrophotometric analysis
[2] = molecular target: T1, Xanthine dehydrogenase/oxidase; experiment: Inhibition of bovine xanthine oxidase assessed as reduction in uric acid formation at 10 uM using xanthine as substrate preincubated for 25 mins followed by substrate addition measured at first 2 mins by spectrophotometric analysis relative to control; conditions: cattle, time 27 min
Rattus norvegicus [3] = experiment: Hypouricemic activity in Sprague-Dawley rat model of Potassium oxonate-induced acute hyperuricemia assessed as decrease in serum urate level at 10 mg/kg, ig administered 1 hr after potassium oxonate treatment and measured after 8 hrs; format: functional, organism-based
[4] = molecular target: T1, Xanthine dehydrogenase/oxidase; experiment: Mixed type inhibition of bovine xanthine oxidase assessed as inhibitory constant using xanthine as substrate preincubated for 25 mins followed by substrate addition measured at first 2 mins by spectrophotometry based Lineweaver-Burk plot analysis
Rattus norvegicus [5] = experiment: Hypouricemic activity in Sprague-Dawley rat model of Potassium oxonate-induced acute hyperuricemia assessed as decrease in serum uric acid level at 10 mg/kg, ig administered 1 hr after potassium oxonate treatment and measured after 3 hrs relative to control; format: functional; design: scale not given: the % may be the effect or the level left; conditions: time 4 hrs
Rattus norvegicus [6] = experiment: Hypouricemic activity in Sprague-Dawley rat model of Potassium oxonate-induced acute hyperuricemia assessed as percentage decrease in serum uric acid AUC (1 to 8 hrs) at 10 mg/kg, ig administered 1 hr after potassium oxonate treatment and measured after 8 hrs relative to control; format: functional; design: scale not given: the % may be the effect or the level left

T1 sequence (P80457 whole entry): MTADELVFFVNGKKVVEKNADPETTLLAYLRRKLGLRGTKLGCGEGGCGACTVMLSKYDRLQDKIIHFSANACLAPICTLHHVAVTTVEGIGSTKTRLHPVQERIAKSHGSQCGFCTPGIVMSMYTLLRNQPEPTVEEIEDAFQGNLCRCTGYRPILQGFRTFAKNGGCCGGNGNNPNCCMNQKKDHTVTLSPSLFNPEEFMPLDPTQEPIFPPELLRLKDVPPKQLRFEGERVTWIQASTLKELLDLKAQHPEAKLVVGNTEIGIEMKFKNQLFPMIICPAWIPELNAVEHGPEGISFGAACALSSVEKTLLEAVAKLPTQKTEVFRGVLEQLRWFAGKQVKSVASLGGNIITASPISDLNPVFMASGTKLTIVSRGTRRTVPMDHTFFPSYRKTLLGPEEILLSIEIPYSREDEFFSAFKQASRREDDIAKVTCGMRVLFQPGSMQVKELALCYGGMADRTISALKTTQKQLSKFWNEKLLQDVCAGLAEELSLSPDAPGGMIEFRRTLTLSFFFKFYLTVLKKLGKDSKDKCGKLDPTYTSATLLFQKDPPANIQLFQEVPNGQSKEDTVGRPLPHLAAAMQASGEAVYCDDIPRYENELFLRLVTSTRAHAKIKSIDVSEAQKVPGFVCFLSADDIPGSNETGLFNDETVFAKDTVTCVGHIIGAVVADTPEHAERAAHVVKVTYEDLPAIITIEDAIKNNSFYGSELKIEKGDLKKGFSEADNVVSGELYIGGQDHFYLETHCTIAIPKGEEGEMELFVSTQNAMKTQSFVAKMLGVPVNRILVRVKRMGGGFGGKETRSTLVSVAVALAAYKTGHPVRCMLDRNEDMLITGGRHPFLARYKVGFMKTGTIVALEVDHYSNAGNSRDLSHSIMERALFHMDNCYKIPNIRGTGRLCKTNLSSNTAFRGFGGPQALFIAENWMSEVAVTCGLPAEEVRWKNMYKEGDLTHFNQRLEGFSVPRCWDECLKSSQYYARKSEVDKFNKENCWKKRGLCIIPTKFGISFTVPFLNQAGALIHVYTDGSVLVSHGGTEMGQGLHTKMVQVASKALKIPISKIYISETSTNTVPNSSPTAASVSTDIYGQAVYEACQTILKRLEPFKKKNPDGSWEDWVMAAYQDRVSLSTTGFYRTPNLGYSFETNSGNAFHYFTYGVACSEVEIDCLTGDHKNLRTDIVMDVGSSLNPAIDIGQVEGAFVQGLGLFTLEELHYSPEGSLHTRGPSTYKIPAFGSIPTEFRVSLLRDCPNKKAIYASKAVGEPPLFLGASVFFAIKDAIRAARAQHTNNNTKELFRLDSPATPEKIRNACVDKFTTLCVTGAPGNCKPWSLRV

`N#Cc1cn(Cc2ccc(Br)cc2)c2ccc(-c3noc(=O)[nH]3)cc12` was tested, and the pIC50 [1] was 5.68.
`CC(C)(C)c1ccc(Cn2cc(C#N)c3cc(-c4noc(=O)[nH]4)ccc32)cc1` gave a pIC50 [1] of 5.84.
`Cc1cccc(Cn2cc(C#N)c3cc(-c4noc(=O)[nH]4)ccc32)c1` was tested, and the pIC50 [1] was 5.67.
`Cn1cc(C#N)c2cc(-c3noc(=O)[nH]3)ccc21` was tested, and the pIC50 [1] was 5.27.
Molecule `N#Cc1c[nH]c2ccc(-c3noc(=O)[nH]3)cc12` has a pIC50 [1] of 5.38.
In the case of `N#Cc1cn(Cc2cccc(Br)c2)c2ccc(-c3noc(=O)[nH]3)cc12`, the pIC50 [1] was 5.59.
`N#Cc1cn(CC2CC2)c2ccc(-c3noc(=O)[nH]3)cc12` showed a pIC50 [1] of 6.06.
With `CC(C)n1ccc2cc(-c3noc(=O)[nH]3)ccc21` the inhibition at 10 µM [2] was under 50%.
Molecule `CC(C)CCn1cc(C#N)c2cc(-c3noc(=O)[nH]3)ccc21` has a pIC50 [1] of 5.99.
With `Cc1ccc(Cn2cc(C#N)c3cc(-c4noc(=O)[nH]4)ccc32)cc1` the pIC50 [1] was 5.94.
Molecule `N#Cc1cn(Cc2ccc(Cl)cc2)c2ccc(-c3noc(=O)[nH]3)cc12` has a pIC50 [1] of 5.62.
`N#Cc1cn(Cc2cccc(F)c2)c2ccc(-c3noc(=O)[nH]3)cc12` showed a pIC50 [1] of 5.44.
`N#Cc1cn(CC2CCCCC2)c2ccc(-c3noc(=O)[nH]3)cc12` was tested, and the pIC50 [1] was 5.54.
`N#Cc1cn(Cc2ccccc2)c2ccc(-c3noc(=O)[nH]3)cc12` was tested, and the pIC50 [1] was 5.76.
In the case of `N#Cc1cn(Cc2ccc(F)cc2)c2ccc(-c3noc(=O)[nH]3)cc12`, the pIC50 [1] was 5.77.
`COc1cccc(Cn2cc(C#N)c3cc(-c4noc(=O)[nH]4)ccc32)c1` gave a pIC50 [1] of 5.77.
`Cc1ccc(Cn2cc(C#N)c3ccc(-c4noc(=O)[nH]4)cc32)cc1` gave a pIC50 [1] of 5.74.
`CC(C)n1cc(C#N)c2ccc(-c3noc(=O)[nH]3)cc21` gave a pIC50 [1] of 5.74.
In the case of `CC(C)n1cc(C#N)c2cc(-c3noc(=O)[nH]3)ccc21`, the pIC50 [1] was 6.39.
`CC(C)Cn1cc(C#N)c2cc(-c3noc(=O)[nH]3)ccc21` showed a pIC50 [1] of 5.96.
`CC(C)CCn1cc(C#N)c2ccc(-c3noc(=O)[nH]3)cc21` gave a pIC50 [1] of 5.18.
In the case of `N#Cc1cn(C2CCCC2)c2cc(-c3noc(=O)[nH]3)ccc12`, the pIC50 [1] was 6.09.
`N#Cc1cn(C2CCCC2)c2ccc(-c3noc(=O)[nH]3)cc12` was tested, and the Activity (Rattus norvegicus [3]) was “Active”, the pKi [4] was 6.86 and the Activity (Rattus norvegicus [5]) was 20.8%. It also gave an Activity (Rattus norvegicus [6]) of 12.8%.
`N#Cc1cn(Cc2cccc(Cl)c2)c2ccc(-c3noc(=O)[nH]3)cc12` gave a pIC50 [1] of 5.53.
`COc1ccc(Cn2cc(C#N)c3cc(-c4noc(=O)[nH]4)ccc32)cc1` was tested, and the pIC50 [1] was 5.99.
Molecule `O=c1[nH]c(-c2ccc3c(ccn3C3CCCC3)c2)no1` has an inhibition at 10 µM [2] of under 50%.
Molecule `CC(C)=CCn1cc(C#N)c2cc(-c3noc(=O)[nH]3)ccc21` has a pIC50 [1] of 5.91.

From ChEMBL document CHEMBL4765254, “Design, synthesis and biological evaluation of 1-alkyl-5/6-(5-oxo-4,5-dihydro-1,2,4-oxadiazol-3-yl)-1H-indole-3-carbonitriles as novel xanthine oxidase inhibitors” (Eur J Med Chem, 2020)
